# Measurements as given in PubChem BioAssay AID2060603 (Molecular Pharmacology Branch, DTP, NCI, 2025).
# Test system: 422866-222-R5-J1-PDC spheroid viability
# Assay: Anticancer human tumor 422866-222-R5-J1-PDC patient-derived pancreatic adenocarcinoma cell line growth inhibition [CLK]
# Settings: spheroids with HUVEC and MSC; for IC50: curve of first compound; for viability, T/C: stronger effect = lower value
# In short: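 Multi-cell-type spheroids combined patient-derived tumor cells with HUVEC endothelial cells and human mesenchymal stem cells. Paired agents were dosed in half-log steps down from about clinical Cmax, or from 10 microM where Cmax was unknown.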
# 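Note: spheroids exposed to agents for seven days before readout.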
compound,measurement,setting,value
CC(=O)O[C@H]1C(=O)[C@@]2(C)[C@H]([C@H](OC(=O)c3ccccc3)[C@]3(O)C[C@H](OC(=O)[C@H](O)[C@@H](NC(=O)c4ccccc4)c4ccccc4)C(C)=C1C3(C)C)[C@]1(OC(C)=O)CO[C@@H]1C[C@@H]2O + CN1CCN(c2cc(C(=O)Nc3cc4cc(-c5cnn(C)c5)ccc4cn3)ccn2)CC1,IC50,second compound 0.0316 µM,> 10 µM
same,IC50,second compound 0.1 µM,> 10 µM
same,IC50,second compound 0.316 µM,> 10 µM
same,IC50,second compound 1 µM,< 0.0316 µM
same,IC50,second compound 3.16 µM,< 0.0316 µM
same,IC50,second compound 10 µM,< 0.0316 µM
same,"viability, T/C","second compound 0.0316 µM, first compound 0.0316 µM",72.2%
same,"viability, T/C","second compound 0.0316 µM, first compound 0.1 µM",61.6%
same,"viability, T/C","second compound 0.0316 µM, first compound 0.316 µM",61.4%
same,"viability, T/C","second compound 0.0316 µM, first compound 1 µM",69.7%
same,"viability, T/C","second compound 0.0316 µM, first compound 3.16 µM",78.1%
same,"viability, T/C","second compound 0.0316 µM, first compound 10 µM",85.3%
same,"viability, T/C","second compound 0.1 µM, first compound 0.0316 µM",70.5%
same,"viability, T/C","second compound 0.1 µM, first compound 0.1 µM",61.9%
same,"viability, T/C","second compound 0.1 µM, first compound 0.316 µM",73.1%
same,"viability, T/C","second compound 0.1 µM, first compound 1 µM",81.5%
same,"viability, T/C","second compound 0.1 µM, first compound 3.16 µM",83.8%
same,"viability, T/C","second compound 0.1 µM, first compound 10 µM",95.4%
same,"viability, T/C","second compound 0.316 µM, first compound 0.0316 µM",68.7%
same,"viability, T/C","second compound 0.316 µM, first compound 0.1 µM",73%
same,"viability, T/C","second compound 0.316 µM, first compound 0.316 µM",72.3%
same,"viability, T/C","second compound 0.316 µM, first compound 1 µM",69.7%
same,"viability, T/C","second compound 0.316 µM, first compound 3.16 µM",72.7%
same,"viability, T/C","second compound 0.316 µM, first compound 10 µM",85.4%
same,"viability, T/C","second compound 1 µM, first compound 0.0316 µM",21.8%
same,"viability, T/C","second compound 1 µM, first compound 0.1 µM",20.5%
same,"viability, T/C","second compound 1 µM, first compound 0.316 µM",18.8%
same,"viability, T/C","second compound 1 µM, first compound 1 µM",19.6%
same,"viability, T/C","second compound 1 µM, first compound 3.16 µM",18.7%
same,"viability, T/C","second compound 1 µM, first compound 10 µM",16.4%
same,"viability, T/C","second compound 3.16 µM, first compound 0.0316 µM",6.64%
same,"viability, T/C","second compound 3.16 µM, first compound 0.1 µM",7.47%
same,"viability, T/C","second compound 3.16 µM, first compound 0.316 µM",8.49%
same,"viability, T/C","second compound 3.16 µM, first compound 1 µM",4.12%
same,"viability, T/C","second compound 3.16 µM, first compound 3.16 µM",9.46%
same,"viability, T/C","second compound 3.16 µM, first compound 10 µM",8%
same,"viability, T/C","second compound 10 µM, first compound 0.0316 µM",1.52%
same,"viability, T/C","second compound 10 µM, first compound 0.1 µM",1.43%
same,"viability, T/C","second compound 10 µM, first compound 0.316 µM",1.2%
same,"viability, T/C","second compound 10 µM, first compound 1 µM",1.05%
same,"viability, T/C","second compound 10 µM, first compound 3.16 µM",0.96%
same,"viability, T/C","second compound 10 µM, first compound 10 µM",1.27%
